Results on three compounds are retold here after patent publication US11903385B1, “1-(butyl(2-hydroxy-3-(naphthalen-1-yloxy)propyl)amino)-3-(naphthalen-2-yloxy)propan-2-ol as an eco-friendly insecticidal agent against Spodoptera littoralis (boisd.)” (KING FAISAL UNIVERSITY, priority 2023, dated 2024).

In brackets after ≈: the same amount, converted by molar mass. Where two headings read alike, the source gives them in different places.

One data set concerns aquatic insects. Particulars: cited from earlier work.
For another data set, the system named is S. littoralis larvae. Briefly: Insecticidal leaf dip bioassay screening. Particulars: 72 h; for Toxicity ratio: fenoxycarb's LC50 / the compound's LC50; for LC50: Spodoptera littoralis, foliar.
Where [1] appears, read: read-out: LC50 (mg/L) at 95%, 2nd instar larvae, after 72 h of treatment.
The mark [2] stands for this setting: read-out: LC50 (mg/L) at 95%, 4th instar larvae, after 72 h of treatment.

Procedure for S. littoralis larvae: Until usage, the stocks were kept in a refrigerator. The target substance test results were noted & the concentrations needed to destroy 50% (LC50) of S. littoralis larvae were calculated. The target compound was employed in five different concentrations, and 0.1% Tween 80 was employed as a surfactant. Castor bean leaf discs (nine centimeters in diameter) were dipped in the concentration under test for ten seconds, then fed to 2th & 4th larvae, which were roughly the same size and housed in glass jars (five lb). Each action was carried out 3 times with ten larvae each. The mortality equalized via Abbott's formula. Calculations of mortality setback line were measurably rummage via probity analysis. […] The mortality results of larval insect were estimated through employing probit analysis through a statistics (LDP-line) equation which estimate the LC50 values with 95% fiducially limits of lower, upper confidence limit and slope.

Consider `CCc1ccc(C(=O)NN(C(=O)c2cc(C)cc(C)c2)C(C)(C)C)cc1` [tebufenozide], for which the LC50 with aquatic insects is 100 to 1000 µg/mL.
As to `CCCCN(CC(O)COc1ccc2ccccc2c1)CC(O)COc1cccc2ccccc12` (stereo not drawn) [III, 1-(butyl(2-hydroxy-3-(naphthalen-1-yloxy)propyl)amino)-3-(naphthalen-2-yloxy)propan-2-ol], the Toxicity ratio in the data set with S. littoralis larvae (2nd instar larvae) turned out to be 0.253; in the data set with S. littoralis larvae (4th instar larvae), 0.551. For the same compound, the LC50 in the data set with S. littoralis larvae (setting [1]) was around 10.8 mg/L (≈ 22.7 µM); with S. littoralis larvae (setting [2]) it was around 16.6 mg/L (≈ 35.2 µM).
In the case of `CCOC(=O)NCCOc1ccc(Oc2ccccc2)cc1` [Fenoxycarb], the Toxicity ratio in the data set on S. littoralis larvae (2nd instar larvae) and in the data set on S. littoralis larvae (4th instar larvae) was 1 each time. In addition, the values for the LC50 with S. littoralis larvae (setting [1]) and with S. littoralis larvae (setting [2]) were 2.73 mg/L (≈ 9.06 µM) and 9.18 mg/L (≈ 30.5 µM), respectively.
